Measured values from US20070099915A1, “INHIBITORS OF THE HIV INTEGRASE ENZYME” (PFIZER INC., priority 2005, published 2007).
Read-outs that look alike come from different tables or passages of the source.

What was measured:
[1] = molecular target: T1, Full-length wild type HIV-1 integrase (SF1) (Human immunodeficiency virus type 1 group M subtype B, UniProt P04585); experiment: Integrase strand-transfer scintillation proximity assay; type: biochemical
T1 construct: made in house; host or cells: E. coli BL21 (DE3)
Text: The annealed product represents preprocessed viral ds-DNA derived from the LTR U5 sequence of the viral genome. A ds-DNA control to test for non-specific interactions was made using a 3′ di-deoxy derivative of oligonucleotide #1 annealed to oligonucleotide #2. The CA overhang at the 5′ end of the non-biotinylated strand of the ds-DNA was created artificially by using a complimentary DNA oligonucleotide shortened by 2 base pairs. This configuration eliminates the requisite 3′ processing step of the integrase enzyme prior to the strand-transfer mechanism.
The annealed product had overhanging 3′ ends of poly(dA). […] The radiolabeled product was purified using a NENSORB cartridge and stored in stabilized aqueous solution (PerkinElmer).
Reagents: Streptavidin-coated polyvinyltoluene (PVT) SPA beads were purchased from Amersham Biosciences (Piscataway, N.J.). Cesium chloride was purchased from Shelton Scientific, Inc. (Shelton, Conn.). White, polystyrene, flat-bottom, non-binding surface, 96-well plates were purchased from Corning. All other buffer components were purchased from Sigma (St. Louis, Mo.) unless otherwise indicated.
Enzyme Construction: Full-length wild type HIV-1 integrase (SF1) sequence (amino acids 1-289) was constructed in a pET24a vector (Novagen, Madison, Wis.).
Enzyme Purification: Full length wild-type HIV Integrase was expressed in E. coli BL21 (DE3) cells and induced with 1 mM isopropyl-1 thio-β-D-galactopyranoside (IPTG) when cells reached an optical density between 0.8-1.0 at 600 nm. Cells were lysed by microfluidation in 50 mM HEPES pH 7.0, 75 mM NaCl, 5 mM DTT, 1 mM 4-(2-Aminoethyl)benzenesulfonylfluoride HCl (AEBSF). Lysate was then centrifuged 20 minutes at 11 k rpm in GSA rotor in Sorvall RC-5B at 4° C. Supernant was discarded and pellet resuspended in 50 mM HEPES pH 7.0, 750 mM NaCl, 5 mM DTT, 1 mM AEBSF and homogenized in a 40 mL Dounce homogenizer for 20 minutes on ice. Homogenate was then centrifuged 20 minutes at 11 k rpm in SS34 rotor in Sorvall RC-5B at 4° C. Supernant was discarded and pellet resuspended in 50 mM HEPES pH 7.0, 750 mM NaCl, 25 mM CHAPS, 5 mM DTT, 1 mM AEBSF. Preparation was then centrifuged 20 minutes at 11 k rpm in SS34 rotor in Sorvall RC-5B at 4° C.
Supernant was then diluted 1:1 with 50 mM HEPES pH 7.0, 25 mM CHAPS, 1 mM DTT, 1 mM AEBSF and loaded onto a Q-Sepharose column pre-equilibrated with 50 mM HEPES, pH 7.0, 375 mM NaCl, 25 mM CHAPS, 1 mM DTT, 1 mM AEBSF. The flow through peak was collected and NaCl diluted to 0.1 M with 50 mM HEPES pH 7.0, 25 mM CHAPS, 1 mM DTT, 0.5 mM AEBSF and loaded onto a SP-Sepharose column pre-equilibrated with 50 mM HEPES pH 7.0, 100 mM NaCl, 25 mM CHAPS, 1 mM DTT, 0.5 mM AEBSF. After washing the column with the equilibration buffer, a 100 to 400 mM NaCl gradient was run. The eluted integrase was concentrated and run on a S-300 gel diffusion column using 50 mM HEPES pH 7.0, 500 mM NaCl, 25 mM CHAPS, 1 mM DTT, 0.5 mM AEBSF. […] All columns were run in a 4° C. cold room.
Viral DNA Bead Preparation: Streptavidin-coated SPA beads were suspended to 20 mg/mL in 25 mM 3-morpholinopropanesulfonic acid (MOPS) (pH 7.2) and 1.0% NaN3. Biotinylated viral DNA was bound to the hydrated SPA beads in a batch process by combining […] of ds-DNA to 1 mg of suspended SPA beads (10 μL of 50 μM viral DNA to 1 mL of 20 mg/mL SPA beads). The mixture was incubated at 22° C. for a minimum of 20 min. with occasional mixing followed by centrifugation at 2500 rpm for 10 min.

[2] = tested on: HIV-1 RF virus in CEM-SS cells; experiment: HIV-1 cell protection assay (XTT dye reduction); type: cell-based
Procedure: Six days later, 50 μl of XTT solution (1 mg/ml XTT tetrazolium and 20 nM phenazine methosulfate) were added to the wells and the plates were reincubated for four hours. Viability, as determined by the amount of XTT formazan produced, was quantified spectrophotometrically by absorbance at 450 nm.
Data from CPE assays were expressed as the percent of formazan produced in compound-treated cells compared to formazan produced in wells of uninfected, compound-free cells. […] The 50% cytotoxicity concentration (CC50) was calculated as the concentration of compound that decreased the percentage of formazan produced in uninfected, compound-treated cells to 50% of that produced in uninfected, compound-free cells. The therapeutic index was calculated by dividing the cytotoxicity (CC50) by the antiviral activity (EC50).

[3] = strand-transfer SPA, 246 nM integrase, 50 nM host DNA, 37° C., 50 min, read-out: IC50
[4] = Human immunodeficiency virus 1, 144 h, RF strain of HIV-1, CEM-SS cells, XTT read-out after six days, read-out: EC50

Cc1ncccc1COCc1cn(Cc2ccc(F)cc2)c2cnc3c(c12)CCN(O)C3=O [Example 64, 3-(4-fluorobenzyl)-7-hydroxy-1-{[(2-methylpyridin-3-yl)methoxy]methyl}-3,7,8,9-tetrahydro-6H-pyrrolo[2,3-c]-1,7-naphthyridin-6-one]
IC50 [1, 3]: 9 nM
EC50 [2, 4]: 1 nM

O=C1c2ncc3c(c(CNC4CCOCC4)cn3Cc3ccc(F)cc3)c2CCN1O [Example 69, 3-(4-fluorobenzyl)-7-hydroxy-1-[(tetrahydro-2H-pyran-4-ylamino)methyl]-3,7,8,9-tetrahydro-6H-pyrrolo[2,3-c]-1,7-naphthyridin-6-one]
IC50 [1, 3]: 20 nM
EC50 [2, 4]: 27 nM

CC(C)COCCOCc1cn(Cc2ccc(F)cc2)c2cnc3c(c12)CCN(O)C3=O [Example 58, 3-(4-fluorobenzyl)-7-hydroxy-1-[(2-isobutoxyethoxy)methyl]-3,7,8,9-tetrahydro-6H-pyrrolo[2,3-c]-1,7-naphthyridin-6-one]
IC50 [1, 3]: 16 nM
EC50 [2, 4]: 0.52 nM

N#Cc1cn(Cc2ccc(F)cc2)c2cnc3c(c12)CCN(O)C3=O [Example 54, 3-(4-fluorobenzyl)-7-hydroxy-6-oxo-6,7,8,9-tetrahydro-3H-pyrrolo[2,3-c]-1,7-naphthyridine-1-carbonitrile]
IC50 [1, 3]: 20 nM
EC50 [2, 4]: 6.6 nM

CN(C)C(=O)[C@@H]1CCCN1Cc1cn(Cc2ccc(F)cc2)c2cnc3c(c12)CCN(O)C3=O [Example 41, 1-{[3-(4-fluorobenzyl)-7-hydroxy-6-oxo-6,7,8,9-tetrahydro-3H-pyrrolo[2,3-c]-1,7-naphthyridin-1-yl]methyl}-N,N-dimethyl-L-prolinamide]
IC50 [1, 3]: 28.1 nM
EC50 [2, 4]: 29 nM

O=C1c2ncc3c(c(CCN4CCC(F)(F)C4)cn3Cc3ccc(F)cc3)c2CCN1O [Example 109, 3-(4-fluorobenzyl)-1-(2-(3,3-difluoropyrrolidin-1-yl)ethyl)-7-hydroxy-8,9-dihydro-3H-pyrrolo[2,3-c][1,7]naphthyridin-6(7H)-one]
IC50 [1, 3]: 14 nM
EC50 [2, 4]: 1 nM

Cc1cc2c(ncc3c2c(CN2CCOCC2)cn3Cc2ccc(F)cc2)c(=O)n1O [Example 43, 3-(4-fluorobenzyl)-7-hydroxy-8-methyl-1-(morpholin-4-ylmethyl)-3,7-dihydro-6H-pyrrolo[2,3-c]-1,7-naphthyridin-6-one]
IC50 [1, 3]: 9.36 nM
EC50 [2, 4]: 0.41 nM

CN1CCN(Cc2cn(Cc3ccc(F)cc3)c3cnc4c(c23)CCN(O)C4=O)CC1 [Example 29, 3-(4-fluorobenzyl)-7-hydroxy-1-[(4-methylpiperazin-1-yl)methyl]-3,7,8,9-tetrahydro-6H-pyrrolo[2,3-c]-1,7-naphthyridin-6-one]
IC50 [1, 3]: 28 nM
EC50 [2, 4]: 3 nM

N#Cc1cccc(Cn2ccc3c4c(ncc32)C(=O)N(O)CC4)c1 [Example 85, 3-[(7-hydroxy-6-oxo-6,7,8,9-tetrahydro-3H-pyrrolo[2,3c]1,7-naphthyridin-3-yl)methyl]benzonitrile]
IC50 [1, 3]: 558 nM
EC50 [2, 4]: 460 nM

COCCOCCCc1cn(Cc2ccc(F)cc2)c2cnc3c(c12)CCN(O)C3=O [Example 106, 3-(4-fluorobenzyl)-7-hydroxy-1-[3-(2-methoxyethoxy)propyl]-3,7,8,9-tetrahydro-6H-pyrrolo[2,3-c]-1,7-naphthyridin-6-one]
IC50 [1, 3]: 14 nM
EC50 [2, 4]: 0.95 nM

N#Cc1cc(Cn2ccc3c4c(ncc32)C(=O)N(O)CC4)ccc1F [Example 88, 2-fluoro-5-[(7-hydroxy-6-oxo-6,7,8,9-tetrahydro-3H-pyrrolo[2,3-c]-1,7-naphthyridin-3-yl)methyl]benzonitrile]
IC50 [1, 3]: 9 nM
EC50 [2, 4]: 0.45 nM

CN(Cc1cn(Cc2ccc(F)cc2)c2cnc3c(c12)CCN(O)C3=O)C1CCCOC1 (stereo not shown) [Example 50, 3-(4-fluorobenzyl)-7-hydroxy-1-{[methyl(tetrahydro-2H-pyran-3-yl)amino]methyl}-3,7,8,9-tetrahydro-6H-pyrrolo[2,3-c]-1,7-naphthyridin-6-one]
IC50 [1, 3]: 11.9 nM
EC50 [2, 4]: 1.8 nM

Cc1cccc(COCc2cn(Cc3ccc(F)cc3)c3cnc4c(c23)CCN(O)C4=O)n1 [Example 78, 3-(4-fluorobenzyl)-7-hydroxy-1-{[(6-methylpyridin-2-yl)methoxy]methyl}-3,7,8,9-tetrahydro-6H-pyrrolo[2,3-c]-1,7-naphthyridin-6-one]
IC50 [1, 3]: 11 nM
EC50 [2, 4]: 0.6 nM

CCCCOCc1cn(Cc2ccc(F)cc2)c2cnc3c(c12)CCN(O)C3=O [Example 60, 1-(butoxymethyl)-3-(4-fluorobenzyl)-7-hydroxy-3,7,8,9-tetrahydro-6H-pyrrolo[2,3-c]-1,7-naphthyridin-6-one]
IC50 [1, 3]: 12 nM
EC50 [2, 4]: 0.39 nM

N#Cc1ccc(Cn2ccc3c4c(ncc32)C(=O)N(O)CC4)cc1 [Example 86, 4-[(7-hydroxy-6-oxo-6,7,8,9-tetrahydro-3H-pyrrolo[2,3-c]-1,7-naphthyridin-3-yl)methyl]benzonitrile]
IC50 [1, 3]: 108 nM
EC50 [2, 4]: 27 nM

O=C1c2ncc3c(c(CN4C[C@@H](F)[C@H](F)C4)cn3Cc3ccc(F)cc3)c2CCN1O [Example 72, 1-{[(3R,4R)-3,4-difluoropyrrolidin-1-yl]methyl}-3-(4-fluorobenzyl)-7-hydroxy-3,7,8,9-tetrahydro-6H-pyrrolo[2,3-c]-1,7-naphthyridin-6-one]
IC50 [1, 3]: 9 nM
EC50 [2, 4]: 0.5 nM

O=C1c2ncc3c(c(CCCOCCN4CCOCC4)cn3Cc3ccc(F)cc3)c2CCN1O [Example 128, 3-(4-fluorobenzyl)-7-hydroxy-1-[3-(2-morpholin-4-ylethoxy)propyl]-3,7,8,9-tetrahydro-6H-pyrrolo[2,3-c]-1,7-naphthyridin-6-one]
IC50 [1, 3]: 21 nM
EC50 [2, 4]: 5 nM

Cc1cc2c(ncc3c2c(CO)cn3Cc2ccc(F)cc2)c(=O)n1O [Example 47, 3-(4-fluorobenzyl)-7-hydroxy-1-(hydroxymethyl)-8-methyl-3,7-dihydro-6H-pyrrolo[2,3-c]-1,7-naphthyridin-6-one]
IC50 [1]: 6 nM
EC50 ([2]; Human immunodeficiency virus 1, CEM-SS, 144 h): 0.39 nM

O=C1c2ncc3c(c(CNCc4ccc(F)c(F)c4)cn3Cc3ccc(F)cc3)c2CCN1O [Example 48, 1-{[(3,4-difluorobenzyl)amino]methyl}-3-(4-fluorobenzyl)-7-hydroxy-3,7,8,9-tetrahydro-6H-pyrrolo[2,3-c]-1,7-naphthyridin-6-one]
IC50 [1, 3]: 16.8 nM
EC50 [2, 4]: 1 nM

O=C1c2ncc3c(c(COCC(O)CO)cn3Cc3ccc(F)cc3)c2CCN1O (stereo in doubt) [Example 24, 1-({[(2S)-2,3-dihydroxypropyl]oxy}methyl)-3-(4-fluorobenzyl)-7-hydroxy-3,7,8,9-tetrahydro-6H-pyrrolo[2 3-c]-1,7-naphthyridin-6-one]
IC50 [1, 3]: 14 nM
EC50 [2, 4]: 4 nM
